Assay results reported in ChEMBL document CHEMBL1140463, “From ATP to AZD6140: the discovery of an orally active reversible P2Y12 receptor antagonist for the prevention of thrombosis” (Bioorg Med Chem Lett, 2007).
pKi: −log10 of the molar value. Calls of active or inactive are those of the source. No cut-off for these calls is given here.

Tests used:
P2Y purinoceptor 12 = P2Y purinoceptor 12 (Homo sapiens, UniProt Q9H244); experiment: Displacement of [125I] labeled ligand from human P2Y12 receptor in human platelets
[1] = Oral bioavailability in rat at 3 to 10 mg/kg; assay type: ADME, organism-based; settings: in vivo
Hepatocyte [2] = experiment: Metabolic stability in human hepatocytes in presence of UDPGA relative to zileuton; assay type: ADME, cell-based
Hepatocyte [3] = experiment: Metabolic stability in human hepatocytes in presence of NADPH relative to dextromethorphan; assay type: ADME, cell-based
[4] = Volume of distribution at steady state in rat at 3 mg/kg, iv; assay type: ADME, organism-based; parameters: dose 3 mg/kg, route intravenous; settings: in vivo, read-out: Vdss
[5] = Half life in rat at 3 mg/kg, iv; assay type: ADME, organism-based; parameters: dose 3 mg/kg, route intravenous; settings: in vivo
in vivo = settings: rat, iv, 3 mg/kg
Description: Plasma clearance in rat at 3 mg/kg, iv

[6] = Plasma clearance in dog at 1 mg/kg, iv; assay type: ADME, organism-based, Canis lupus familiaris; parameters: dose 1 mg/kg, route intravenous
[7] = Volume of distribution at steady state in dog at 1 mg/kg, iv; assay type: ADME, organism-based, Canis lupus familiaris; parameters: dose 1 mg/kg, route intravenous; settings: in vivo, read-out: Vdss
[8] = Half life in dog at 1 mg/kg, iv; assay type: ADME, organism-based, Canis lupus familiaris; parameters: dose 1 mg/kg, route intravenous; settings: in vivo
[9] = Oral bioavailability in dog at 1 mg/kg; assay type: ADME, organism-based, Canis lupus familiaris; settings: in vivo
Canis familiaris = experiment: Inhibition of ADP-induced platelet aggregation in po dosed dog; assay type: functional, organism-based; settings: Canis lupus familiaris

P2Y purinoceptor 12, sequence (Q9H244 whole entry): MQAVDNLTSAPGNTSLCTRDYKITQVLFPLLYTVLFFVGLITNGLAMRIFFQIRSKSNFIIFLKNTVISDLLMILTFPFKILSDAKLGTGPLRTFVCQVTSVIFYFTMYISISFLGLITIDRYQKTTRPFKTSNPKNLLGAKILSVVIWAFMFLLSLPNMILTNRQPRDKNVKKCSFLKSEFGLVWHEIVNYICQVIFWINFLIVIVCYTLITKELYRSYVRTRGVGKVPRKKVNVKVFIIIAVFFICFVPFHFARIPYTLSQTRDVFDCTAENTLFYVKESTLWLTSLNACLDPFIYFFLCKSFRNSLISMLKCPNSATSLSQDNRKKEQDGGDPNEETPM

Compound: CCCSc1nc(N[C@@H]2C[C@H]2c2ccccc2)c2nnn([C@@H]3CC[C@@H](O)[C@H]3O)c2n1
- pKi (P2Y purinoceptor 12): 8.60
- bioavailability [1]: 38%
- Ratio (Hepatocyte [2]): 1

Compound: CCCSc1nc(N[C@@H]2C[C@H]2c2ccccc2)c2nnn([C@@H]3C[C@H](OCCO)[C@@H](O)[C@H]3O)c2n1
- pKi (P2Y purinoceptor 12): 8.50
- bioavailability [1]: 26%
- Ratio (Hepatocyte [2]): 24
- Ratio (Hepatocyte [3]): 13

Compound: CCCCNc1nc(SCCC)nc2c1nnn2[C@@H]1C[C@H](CO)[C@@H](O)[C@H]1O
- pKi (P2Y purinoceptor 12): 7.10
- Vd [4]: 2.3 L/kg
- half-life [5]: 1.2 h
- bioavailability [1]: < 5%
- clearance (in vivo; in vivo): 29 mL/min/kg

Compound: CCCSc1nc(N[C@@H]2C[C@H]2c2ccccc2)c2nnn([C@@H]3C[C@H](O)[C@@H](O)[C@H]3O)c2n1
- pKi (P2Y purinoceptor 12): 8.70
- bioavailability [1]: 50%
- Ratio (Hepatocyte [2]): 3
- Stability (Hepatocyte [3]): Stable

Compound: OCCO[C@H]1C[C@@H](n2nnc3c(N[C@@H]4C[C@H]4c4ccc(F)c(F)c4)nc(SCCC(F)(F)F)nc32)[C@H](O)[C@@H]1O
- pKi (P2Y purinoceptor 12): 9.20
- Vd [4]: 2.1 L/kg
- half-life [5]: 2.5 h
- bioavailability [1]: 9%
- Stability (Hepatocyte [2]): Stable
- Ratio (Hepatocyte [3]): 32
- clearance (in vivo; plasma): 12 mL/min/kg

Compound: OC[C@H]1C[C@@H](n2nnc3c(N[C@@H]4C[C@H]4c4ccc(F)c(F)c4)nc(SCCC(F)(F)F)nc32)[C@H](O)[C@@H]1O
- pKi (P2Y purinoceptor 12): 8.30
- Vd [4]: 2.7 L/kg
- half-life [5]: 3 h
- bioavailability [1]: 17%
- Stability (Hepatocyte [2]): Stable
- Ratio (Hepatocyte [3]): > 30
- clearance [6]: 16.5 mL/min/kg
- Vd [7]: 5.6 L/kg
- half-life [8]: 4.8 h
- bioavailability [9]: 59%
- clearance (in vivo; plasma): 11 mL/min/kg

Compound: CCCCNc1nc(SCCC)nc2c1nnn2[C@@H]1C[C@H](C(=O)O)[C@@H](O)[C@H]1O
- pKi (P2Y purinoceptor 12): 8.30
- Vd [4]: 0.4 L/kg
- half-life [5]: 0.5 h
- bioavailability [1]: < 5%
- clearance (in vivo; plasma): 30 mL/min/kg

Compound: CCCSc1nc(N[C@@H]2C[C@H]2c2ccccc2)c2nnn([C@@H]3C[C@H](C(N)=O)[C@@H](O)[C@H]3O)c2n1
- pKi (P2Y purinoceptor 12): 8.80
- Vd [4]: 2.2 L/kg
- half-life [5]: 2 h
- bioavailability [1]: < 5%
- clearance (in vivo; plasma): 20 mL/min/kg

Compound: CCCSc1nc(N[C@@H]2C[C@H]2c2ccccc2)c2nnn([C@@H]3C[C@H](CO)[C@@H](O)[C@H]3O)c2n1.Cl
- pKi (P2Y purinoceptor 12): 8.20
- bioavailability [1]: 37%
- Ratio (Hepatocyte [2]): 19
- Ratio (Hepatocyte [3]): 27

Compound: OC[C@H]1C[C@@H](n2nnc3c(N[C@@H]4C[C@H]4c4ccccc4)nc(SCCC(F)(F)F)nc32)[C@H](O)[C@@H]1O
- pKi (P2Y purinoceptor 12): 8.30
- Ratio (Hepatocyte [2]): 19
- Stability (Hepatocyte [3]): Stable

Compound: CCCSc1nc(N[C@@H]2C[C@H]2c2ccc(F)c(F)c2)c2nnn([C@@H]3C[C@H](OCCO)[C@@H](O)[C@H]3O)c2n1 [TICAGRELOR]
- pKi (P2Y purinoceptor 12): 8.70
- Vd [4]: 3.8 L/kg
- half-life [5]: 2.6 h
- bioavailability [1]: 24%
- Stability (Hepatocyte [2]): Stable
- Ratio (Hepatocyte [3]): 24
- clearance [6]: 9 mL/min/kg
- Vd [7]: 3 L/kg
- half-life [8]: 2.9 h
- bioavailability [9]: 72%
- clearance (in vivo; plasma): 21 mL/min/kg

Compound: CCCSc1nc(N[C@@H]2C[C@H]2c2ccccc2)c2nnn([C@@H]3C[C@H](C(=O)O)[C@@H](O)[C@H]3O)c2n1
- pKi (P2Y purinoceptor 12): 9.60
- Vd [4]: 0.5 L/kg
- half-life [5]: 0.5 h
- clearance (in vivo; plasma): 16 mL/min/kg

Compound: CCCSc1nc(N[C@@H]2C[C@H]2c2ccccc2)c2nnn([C@@H]3C[C@H](CO)[C@@H](O)[C@H]3O)c2n1 [listing 1 of 2 here]
- pKi (P2Y purinoceptor 12): 8.30
- Vd [4]: 2.9 L/kg
- half-life [5]: 2.5 h
- bioavailability [1]: 35%
- Ratio (Hepatocyte [2]): 5
- Ratio (Hepatocyte [3]): > 30
- clearance (in vivo; plasma): 16 mL/min/kg

Compound: CCCCNc1nc(SCCC)nc2c1nnn2[C@@H]1C[C@H](C(N)=O)[C@@H](O)[C@H]1O
- pKi (P2Y purinoceptor 12): 7.70
- Vd [4]: 1.6 L/kg
- half-life [5]: 1.4 h
- bioavailability [1]: < 5%
- clearance (in vivo; plasma): 21 mL/min/kg

Compound: CCCSc1nc(N[C@@H]2C[C@H]2c2ccccc2)c2nnn([C@@H]3C[C@H](CO)[C@@H](O)[C@H]3O)c2n1 [listing 2 of 2 here]
- Activity (Canis familiaris): Active
